US10092537B2, “Use for PAI-1 inhibitor” (RENASCIENCE CO., LTD., priority 2013, dated 2018)

Experiments:
[1] = system: CML cells; test: Chronic myelogenous leukemia model mice, CML cells engrafted onto bone marrow by FACS (Experimental Example 15); type: in vivo
Description: Chronic myelogenous leukemia model mice prepared in accordance with the procedure of Experimental Example 11 (1) were divided into 3 groups (each group: n=15) and administered respective test drugs.
(§1) Group 1: placebo group (physiological saline was administered via gavage)
Group 2: imatinib group (imatinib [150 mg/kg/day] was administered via gavage)
Group 3: imatinib+compound c group (imatinib [150 mg/kg/day] and compound c [10 mg/kg/day] were administered via gavage)
8 days (day 8) after the day on which CML cells were intravenously inoculated (day 0), administration of test drugs to the groups was started. The placebo group and the imatinib group were administered the respective test drugs once a day from day 8 to day 14 (7 doses in total). The imatinib+compound c group was administered imatinib once a day from day 8 to day 14 (7 doses in total), and also administered compound c once a day from day 8 to day 14 (7 doses in total).
CML cells engrafted onto bone marrow were analyzed by FACS immediately before the administration of a test drug (day 8; “immediately before antitumor agent treatment” in FIG. 19), immediately after the completion of administration of a test drug (day 14; “immediately after antitumor agent treatment” in FIG. 19), and day 28 from the start of administration of a test drug (day 36; “after 28 days” in FIG. 19). […] About 50% leukemia cells were grafted on the bone marrow immediately before administration of a test drug (day 8; “immediately before antitumor agent treatment” in FIG. 19). After the tumor-bearing mice were administered a test drug 7 times (day 14), the proportion of CML cells was analyzed. […] All of the mice in the group administered physiological saline died.

[2] = system: hematopoietic stem cells; test: Hematopoietic recovery after bone-marrow transplantation, compounds a, b, c (Experimental Example 5); type: in vivo, mice; details: for frequency of hematopoietic stem cells / self-renewal capacity of hematopoietic stem cells: compound a 100 mg/kg oral 4 days, compounds b and c 10 mg/kg oral 6 consecutive days after bone-marrow transplantation
Description: The procedures of Experimental Examples 4 (1) and 4 (4) were repeated using compounds b and c, instead of compound a, as a test compound.
Compound a was orally administered in an amount of 100 mg/kg for 4 consecutive days after bone-marrow transplantation. Compounds b and c were orally administered in an amount of 10 mg/kg for 6 consecutive days after bone-marrow transplantation.
Bone marrow was collected 1 and 3 weeks after bone-marrow transplantation. The total number of the whole bone-marrow cells (FIG. 9E), the proportion (%) of LSK-CD34 negative cells in the whole bone marrow (FIG. 9A), the total number of LSK-CD34 negative cells in the whole bone marrow (FIG. 9B), the proportion (%) of Lin-SLAM cells in the whole bone marrow (FIG. 9C), and the total number of Lin-SLAM cells in the whole bone marrow (FIG. 9D) were measured. The results are shown in the above-stated figures.

[3] = Pharmacokinetics after oral gavage (Experimental Example 6); type: in vivo, male Wister rats; details: male, Wistar, rat, 50 mg/kg oral gavage, plasma, reversed-phase HPLC
Description: Compound a (50 mg/kg) was administered to male Wister rats (180-200 g) via oral gavage. Before administration (0 h), and 1, 2, 6 and 24 hours after the administration, blood was collected, and the concentration of compound a in plasma of each […] was analyzed by reversed-phase HPLC. The time at which the maximum drug concentration in blood is observed (Tmax), the maximum drug concentration (Cmax), and half-life (T½) were determined.

[4] = Single-dose toxicity test using rat (Experimental Example 6); details: 500, 1,000, and 2,000 mg/kg oral gavage
[5] = system: CML cells; test: Chronic myelogenous leukemia model mice, compound a alone, imatinib, combination (Experimental Example 16); type: in vivo; details: day 10 to day 16
Description: as §1
Group 2: compound a group (compound a [100 mg/kg/day] was administered via gavage)
Group 3: imatinib group (imatinib [150 mg/kg/day] was administered via gavage)
Group 4: imatinib+compound a group (imatinib [150 mg/kg/day] and compound a [100 mg/kg/day] were administered via gavage)
10 days after (day 10) the day on which CML cells were intravenously inoculated (day 0), administration of test drugs to the groups was started. The placebo group, the compound a group, and the imatinib group were administered the respective test drugs once a day from day 10 to day 16 (7 doses in total). The imatinib+compound a group was administered imatinib once a day from day 10 to day 16 (7 doses in total), and also administered compound a once a day from day 10 to day 16 (7 doses in total).

[6] = compound a 100 mg/kg oral, 4 consecutive days, 1 and 3 weeks after bone-marrow transplantation, versus vehicle

| SMILES | CML (leukemia) cells in the bone marrow ([1]; imatinib 150 mg/kg/day + compound c 10 mg/kg/day, day 8 to day 14, analysed day 36) | proportion of CML cells in the bone marrow ([1]; imatinib + compound c, day 14, after 7 doses, about 50% before treatment) | frequency of hematopoietic stem cells [2] | self-renewal capacity of hematopoietic stem cells [2] | Cmax [3] | Tmax [3] | half-life ([3]; read-out: T½ (converted)) | autopsy findings ([4]; after 2 weeks) | abnormality during 2-week monitoring ([4]; male and female rats) | toxicity given in a single dose ([4]; male and female rats, monitored 2 weeks) | survival ([5]; compound a 100 mg/kg/day alone, all of the subject mice, as placebo) | survival rate on day 50 ([5]; imatinib 150 mg/kg/day + compound a 100 mg/kg/day via gavage) | plg level, tPA level, cKitL level, total MMP-9 level in the plasma and white blood cell count in the peripheral blood [2, 6] | proportion and total number of LSK-CD34 negative cells and Lin-SLAM cells in the whole bone marrow [2, 6] |
| --- | --- | --- | --- | --- | --- | --- | --- | --- | --- | --- | --- | --- | --- | --- |
| O=C(Nc1ccc(Cl)cc1C(=O)O)c1cccc(-c2ccccc2)c1 [Example 4, 2-[(biphenyl-3-ylcarbonyl)amino]-5-chlorobenzoic acid] | 1.8% | marked decrease | increase | enhance | – | – | – | – | – | – | – | – | – | – |
| O=C(COCC(=O)N1CCN(C(c2ccccc2)c2ccccc2)CC1)Nc1ccc(Cl)cc1C(=O)[O-].[Na+] [Example 30 (compound group 2), 2-(2-(2-(4-benzhydrylpiperazin-1-yl)-2-oxoethoxy)acetamido)-5-chlorobenzoic acid sodium salt] | – | – | increase | enhance | 35700 ng/mL | 2 h | 2.5 h | no particular abnormality | None of the male and female rats showed abnormality | low | died during the period from day 10 to day 20 | 60% | significantly higher | significantly higher |
